From patent US20220030866A1, “CONJUGATES OF AUXIN ANALOGS” (The State of Israel, Ministry of Agriculture & Rural …, priority 2019, published 2022)
Marks after values point to notes of the source that are not given here.

Tests used:
Assay type in all cases: in vivo
[1] = system: cuttings from mature Eucalyptus grandis trees; experiment: rooting of cuttings from mature Eucalyptus grandis trees; settings: for appearance of the roots compared with IBA alone: 6000 ppm IBA with 100 μM compound
How it was run: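 Cuttings (12-15 cm, two upper leaves halved) from branches of 8-year-old net-house plants; bases dipped 1 min in 6000 ppm IBA potassium salt plus 50 μM conjugate, leaves sprayed with 50 μM conjugate in 0.5% Triton X-100. Rooted at 25° C, 90% humidity, peat:vermiculite:polystyrene 1:2:3; rooting scored after 30-60 days.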

[2] = system: argan (Argania spinosa) cuttings; experiment: rooting of argan cuttings; settings: 100 μM conjugate with 6000 ppm IBA
Procedure: The ability of exemplary conjugates to promote rooting in plants which are recalcitrant to rooting (in addition to the results obtained with Eucalyptus grandis in Example 3) was examined using cuttings of argan (Argania spinosa) and jojoba (Simmondsia chinensis) in a commercial nursery (Shorashim). The argan and jojoba cuttings were treated with 100 μM of a conjugate (any of Compounds 10-1t) with 6000 ppm IBA. The common treatment T-8 (talc with 8000 ppm IBA and a fungicide) or 6000 ppm IBA (without conjugate) served as a control.
Exemplary conjugates were also tested for rooting the hard-to-root species of avocado (VC801 rootstock) and argan, according to procedures described hereinabove.

[3] = system: Eucalyptus brachyphylla cuttings; experiment: rooting of Eucalyptus brachyphylla cuttings; settings: for mean root number per cutting, E. brachyphylla: K-IBA alone or with 100 μM compound; for mean root length, E. brachyphylla, relative to IBA alone, in words: K-IBA with 100 μM compound
Procedure: In order to investigate cloning of productive eucalyptus trees from cuttings, branches were excised from mature Eucalyptus x trabutii and Eucalyptus brachyphylla trees the field (in Kfar Pines, Israel)—selected based on their exceptional nectar production and honeybee attraction—placed in a humidified cooler box and brought to a climate-controlled greenhouse within 2 hours. Each cutting, 7 cm long, included three nodes with only two leaves remaining at its apical end. Two-thirds of each blade was excised to minimize evapotranspiration. The cutting bases were submerged for 1 minute in 6 grams/liter indole-3-butyric acid potassium salt (K-IBA), optionally supplemented with Compound 1s or 1t at a concentration of 100 μM. In addition, the leaves were sprayed with 100 μM of each compound in the presence of 0.05% Triton X-100 surfactant. Stock solutions of Compounds 1s and 1t were at a concentration of 100 mM in DMSO. The cuttings were planted in rooting medium containing peat, vermiculite and polystyrene flakes at a ratio of 1:2:3 respectively, on a heated rooting table under 90% humidity. Fungicides were applied to the rooting media on a weekly basis. Rooting percentage, number of roots per cutting and root length were measured after 1 and 2 weeks and after 1 and 2 months.

[4] = system: cuttings from mature Eucalyptus grandis trees; experiment: rooting of cuttings from mature Eucalyptus grandis trees; settings: 100 μM compound by submerging or spraying, with 6000 ppm IBA
[5] = system: avocado rootstock cuttings; experiment: rooting of avocado rootstock cuttings; settings: vc51 rootstock, IBA with compound
How it was run: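 Green cuttings of avocado rootstock (including hard-to-root VC801) were treated with auxin conjugates in the presence of IBA and scored for rooting.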

[6] = system: Pinus halepensis cuttings; experiment: rooting and root development in pine cuttings; settings: 400 ppm IBA potassium salt + 5 ppm conjugate, 4 hours dip; 12 weeks
Procedure: The effects of exemplary D-amino acid conjugates of 4-CPA (Compounds to and Is) on rooting in Pinus halepensis cuttings were compared with those of 2-DP-glycine methyl ester conjugate (2-DP-Gly). Rooting mature pine cuttings (i.e., cuttings that are taken from trees more than 4 years old) is very difficult.
Apical cuttings were taken from 7-year-old trees, stored for 4 weeks at 4° C., and treated by dipping the cutting bases for 4 hours in the following solution: 400 ppm IBA potassium salt+5 ppm tested conjugate+0.1% Amistar™ fungicide (250 grams/liter azoxystrobin). The cuttings were evaluated after 12 weeks.

[7] = IBA with 100 μM compound, submersion and spraying

| SMILES | percentage of adventitious root formation (rooting) ([1]; 6000 ppm IBA and 100 μM conjugate by submersion of base plus spraying of foliage) | appearance of the roots compared with IBA alone ([1]; submersion and spraying) | number of root tips compared with IBA alone (WinRHIZO) [1, 7] | total root length compared with IBA alone (WinRHIZO) [1, 7] | rooting percentage in argan compared with IBA alone, in words [2] | mean root number per cutting, E. brachyphylla [3] | mean root length, E. brachyphylla, relative to IBA alone, in words [3] | rooting in combination with IBA compared with IBA alone, in words [4] | roots per cutting of green avocado branches compared with etiolated branches treated with IBA, in words [5] | rooting success rate of green avocado branches, in words ([5]; compared with IBA alone) | Degree of root development Medium (%) [6] | Degree of root development Weak (%) [6] | Degree of root development Well-developed (%) [6] | Rooting rate (%) [6] |
| --- | --- | --- | --- | --- | --- | --- | --- | --- | --- | --- | --- | --- | --- | --- |
| COC(=O)[C@H](Cc1c[nH]c2ccccc12)NC(=O)COc1ccc(Cl)cc1 [Compound 1t, 4-CPA-L-Trp] | 51±7% | appeared more branched | considerably enhanced the number of root tips | considerably enhanced the total root length | considerably higher rooting percentages | about 2 | enhanced mean root length | at least as potent as that of their corresponding D-amino acid conjugates | – | – | – | – | – | – |
| O=C(O)COc1ccc(Cl)cc1 [Compound 4-CPA, 4-chloro-phenoxyacetic acid, reference compound] | – | – | – | – | – | – | – | considerably less effective | – | – | – | – | – | – |
| COC(=O)[C@@H](Cc1c[nH]c2ccccc12)NC(=O)COc1ccc(Cl)cc1 [Compound 1s, 4-CPA-D-Trp] | – | appeared more branched | – | – | considerably higher rooting percentages | about 2 | enhanced mean root length | – | considerably more roots per cutting | considerably enhanced the rooting success rate | 0% | 6.2% | 81.3* % | 92.9% |
